Results published in PubChem BioAssay (NCI).
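Grown in 96-well plates, cells were treated for 48 hours with each compound at five concentrations. Insufficient inhibition: endpoint recorded as highest concentration tested. TGI: concentration producing complete growth inhibition.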

Experiments:
Assay in all cases: growth of human tumour cells (NCI), 48 h
DLD-1 colon = system: DLD-1 colon
DMS 114 small cell lung = system: DMS 114 small cell lung
HOP-18 NSCLC = system: HOP-18 NSCLC
KM20L2 colon = system: KM20L2 colon
LXFL 529 NSCLC = system: LXFL 529 NSCLC
M19-MEL melanoma = system: M19-MEL melanoma
SNB-78 CNS = system: SNB-78 CNS
XF 498 CNS = system: XF 498 CNS
RXF-631 renal = system: RXF-631 renal

Row | Structure (SMILES) | TGI (DLD-1 colon) | TGI (DMS 114 small cell lung) | TGI (HOP-18 NSCLC) | TGI (KM20L2 colon) | TGI (LXFL 529 NSCLC) | TGI (M19-MEL melanoma) | TGI (SNB-78 CNS) | TGI (XF 498 CNS) | TGI (RXF-631 renal)
1 | N#CC(NNC(=O)c1ccccc1O)c1ccccc1 (stereo unspecified) | > 100 µM | 4.87 µM | > 100 µM | > 100 µM | > 100 µM | > 100 µM | > 100 µM |  | 
2 | Cc1ccc(S(=O)(=O)c2c3[nH]c4ccccc4nc3n3c2nc2ccccc23)cc1 | > 100 µM | > 100 µM |  | > 100 µM | > 100 µM | > 100 µM | > 100 µM | > 100 µM | 
3 | COc1ccc(CCc2ccccc2CC(=O)O)cc1 | > 100 µM | > 100 µM | > 100 µM | > 100 µM | > 100 µM | > 100 µM | > 100 µM | > 100 µM | 
4 | CCCCCCCSCC1C(=O)C23C(O)C1CCC2C12COC3(O)C(O)C1C(C)(C)CCC2O (stereo unspecified) | 30 µM | 23.1 µM | 25 µM | 25 µM | 6.88 µM | 31.6 µM | 47.4 µM | 33.4 µM | 22 µM
5 | CC1=NN(C(=O)c2ccc(Cl)cc2)C(=O)/C1=C/c1ccc(O)cc1 | > 100 µM | > 100 µM |  | > 100 µM | > 100 µM | > 100 µM |  | > 100 µM | 
6 | C=CCCCCCC(O)C(O)C/C=C\C/C=C\CC (stereo unspecified) | > 18.8 µM | > 18.8 µM | > 18.8 µM | > 18.8 µM | > 18.8 µM |  | > 18.8 µM | > 18.8 µM | 
7 | C/C(=N\NC(=S)NNC(=S)N(C)c1ccccc1)c1ccccn1 | > 100 µM | 12.6 µM | 0.732 µM |  | > 100 µM | 7.59 µM | > 100 µM | > 100 µM | 
